In patent publication US20110165660A1, “ENGINEERED MICROORGANISMS WITH ENHANCED FERMENTATION ACTIVITY” (VERDEZYNE, INC., priority 2009, published 2011):
Changes are numbered by the printed parent chain. Names and notes keep the numbering of the source.

Columns and labels:
[1] = molecular target: S. cerevisiae ZWF1 variant A51D (mutant 4) (Saccharomyces cerevisiae, UniProt P11412, A51D); test: Cofactor preference of ZWF1 mutants (NAD+ vs NADP+); format: biochemical; conditions: initial kinetic screening, preliminary cofactor phenotype
Protocol: (§1) Strain BY4742 zwf1 (ATCC Cat. No. 4011971; Winzeler E A, et al. Science 285: 901-906, 1999. PubMed: 10436161) was used as the base strain for all ZWF1 assays. The assays were performed as follows: A 5 ml overnight of the strain expressing the ZWF1 gene was grown in SCD-ura. A 50 ml culture of the strain was then grown for about 18 hours from an initial OD600 of about 0.2 until it had reached about OD600 of about 4. The cells were centrifuged at 1046×g washed twice with 25 ml cold sterile water, and resuspended in 2 ml/g Yper Plus (Thermo Scientific) plus 1×protease inhibitors (EDTA-free). The cells were allowed to lyse at room temperature for about 30 minutes with constant rotation of the tubes. The lysate was centrifuged at 16,100×g for 10 minutes at 4° C. and the supernatants were transferred to a new 1.5 ml microcentrifuge tube. Quantification of the lysates was performed using the Coomassie-Plus kit (Thermo Scientific, San Diego, Calif.) as directed by the manufacturer.
(§2) The reaction was started with 20 mM glucose-6-phosphate and the reaction was monitored at A340. The specific activity was measured as the μmol substrate/min/mg protein.
Site-directed mutagenesis was used to alter of ZWF1 so that the altered ZWF1 could also utilize NAD+, thereby improving the REDOX balance within the cell. […]

[2] = molecular target: S. cerevisiae ZWF1 (glucose-6-phosphate dehydrogenase) variant F33Y (mutant 8) (Saccharomyces cerevisiae, UniProt P11412, F33Y); test: Cofactor usage of ZWF1 mutants (initial kinetic screening, NAD+ vs NADP+); format: biochemical; conditions: preliminary cofactor phenotype
Protocol: as §1, §2
(§3) Site directed mutagenesis reactions were performed in the same manner for all mutations, and for mutants which include more than one mutation, each mutation was performed sequentially. About 50 ng of plasmid DNA was added to 1×Pfu Ultra II buffer, 0.3 mM dNTPs, […] site directed mutagenesis specific primers, and 1 U Pfu Ultra II polymerase (Agilent, La Jolla, Calif.) in a 50 μl reaction mix. The reaction was cycled at 95° C. for 10 minutes, followed by 15 rounds of 95° C. for 15 seconds, 55° C. for 40 seconds, and 72° C. for 3 minutes. A final 10 minute extension reaction at 72° C. was also included. The PCR reaction mixture was then digested with 30 U of Dpnl for about 2 hours and 5 μl of the digested PCR reaction mixture was used to transform competent DH5α (Zymo Research, Orange, Calif.) and plated onto LB plates containing the appropriate antibiotics. The table below lists mutants generated in a first round of mutagenesis.

[3] = molecular target: S. cerevisiae ZWF1 (glucose-6-phosphate dehydrogenase) variant A24G (mutant 1) (Saccharomyces cerevisiae, UniProt P11412, A24G); test: as above; format: biochemical; conditions: preliminary cofactor phenotype
Protocol: as §1, §2, §3

[4] = molecular target: S. cerevisiae ZWF1 (glucose-6-phosphate dehydrogenase) variant A24G/T28G (mutant 2) (Saccharomyces cerevisiae, UniProt P11412, A24G/T28G); test: as above; format: biochemical; conditions: preliminary cofactor phenotype
Protocol: as §1, §2, §3

[5] = molecular target: S. cerevisiae ZWF1 (glucose-6-phosphate dehydrogenase) variant T28F (mutant 5) (Saccharomyces cerevisiae, UniProt P11412, T28F); test: as above; format: biochemical; conditions: preliminary cofactor phenotype
Protocol: as §1, §2, §3

[6] = molecular target: S. cerevisiae ZWF1 (glucose-6-phosphate dehydrogenase) variant K46R (mutant 6) (Saccharomyces cerevisiae, UniProt P11412, K46R); test: as above; format: biochemical; conditions: preliminary cofactor phenotype
Protocol: as §1, §2, §3

[7] = molecular target: S. cerevisiae ZWF1 (glucose-6-phosphate dehydrogenase) variant A51N (mutant 3) (Saccharomyces cerevisiae, UniProt P11412, A51N); test: as above; format: biochemical; conditions: preliminary cofactor phenotype
Protocol: as §1, §2, §3

[8] = molecular target: S. cerevisiae ZWF1 (glucose-6-phosphate dehydrogenase) variant Y40L (mutant 7) (Saccharomyces cerevisiae, UniProt P11412, Y40L); test: as above; format: biochemical; conditions: preliminary cofactor phenotype
Protocol: as §1, §2, §3

[9] = substrate: OC1OC[C@@H](O)[C@H](O)[C@H]1O; test: purified protein, by the assay type; format: biochemical, Ruminococcus flavefaciens / Piromyces; conditions: other: xylose 40-500 mM, pH 7.5, about 30° C.
Protocol: Approximately 20 μg of soluble whole cell extract from each transformed cell line was prepared using Y-PER plus reagent as described above was incubated in a solution containing about 100 mM Tris, pH 7.5, 10 mM MgCl2, 0.15 mM NADH (Sigma, St. Louis, Mo.), and 2 U sorbitol dehydrogenase (SDH) (Roche, Indianapolis, Ind.) at about 30° C. […] A Beckman DU-800 spectrophotometer was utilized with an Enzyme Mechanism software package (Beckman Coulter, Inc, Brea, Calif.), and the change in the A340 was monitored for 2-3 minutes.

[10] = substrate: OC1OC[C@@H](O)[C@H](O)[C@H]1O; test: purified protein, by the assay type; format: biochemical, Ruminococcus flavefaciens / Piromyces; conditions: other: xylose 40-500 mM, pH 7.5, about 30° C.; remark: listed apart in the source
Text: To generate the chimeric XI-Rp10 gene, the 5′ primer KAS/XI-R-P6-10 and 3′ primer KAS/3-XI-RF-NATIVE were first used to add nucleotides 16-30 from the XI-P gene to the 5′ end of the XI-R gene keeping the remainder of the XI-R gene in-frame. […] Following PCR purification of the resulting XI-Rp6-10 amplified product, 5′ primer KAS/XI-R-P1-10 and either the 3′ primer KAS/3-XI-RF-NATIVE or the 3′ primer KAS/3-XI-RF-NATIVE-HIS oligonucleotides were used to add additional sequences.

[11] = substrate: OC1OC[C@@H](O)[C@H](O)[C@H]1O; test: cells, lysate or membranes; format: biochemical, Ruminococcus flavefaciens; conditions: other: xylose about 40 to about 500 mM, pH 7.5, about 30° C.
Protocol: A series of specific point mutations were made to the “hot rod” Ruminococcus xylose isomerase gene using site-directed mutagenesis.
Site directed mutagenesis was performed as follows: About 50 ng of template DNA was added to 1×Pfu Ultra II buffer, 0.3 mM dNTPs, […] of the relevant mutagenesis primers depending on the mutant being constructed and 1 U Pfu Ultra 11 polymerase (Agilent, La Jolla, Calif.) in a 50 μl reaction mix. The “hot rod” Ruminococcus xylose isomerase gene was used as the template DNA for constructing single point mutation variants. Previously engineered mutants sometimes were used as “template” DNA to generate other mutants. Each reaction was PCR cycled as follows: 95° C. 10 minutes followed by 30 rounds of 95° C. for 20 seconds, 55° C. for 30 seconds, and 72° C. for 5 minutes. A final 5 minute extension reaction at 72° C. was also included. Following PCR, 1.5 μl of Dpnl (NEB, Ipswich, Mass.) was added and allowed to digest the reaction mixture for 1 to 1.5 hours at 37° C. 5 μl of this mixture was then used to transform NEB-5a cells (NEB, Ipswich, Mass.) and plated onto LB media with ampicillin (100 μg/ml). (Table below discloses SEQ ID NOS 229-256, respectively, in order of appearance)

[12] = substrate: OC1OC[C@@H](O)[C@H](O)[C@H]1O; test: purified protein, by the assay type; format: biochemical, Ruminococcus flavefaciens / Piromyces; conditions: other: xylose 40-500 mM, pH 7.5, about 30° C.; remark: listed apart in the source
Text: Following PCR purification of the resulting XI-Rp6-15 amplified product, 5′ primer KAS/XI-R-P1-15 either 3′ primer KAS/3-XI-RF-NATIVE or 3′ primer KAS/3-XI-RF-NATIVE-HIS oligonucleotides were used to add additional sequences.

S. cerevisiae ZWF1 (glucose-6-phosphate dehydrogenase) variant Y40L (mutant 7), sequence (P11412 whole entry Y40L): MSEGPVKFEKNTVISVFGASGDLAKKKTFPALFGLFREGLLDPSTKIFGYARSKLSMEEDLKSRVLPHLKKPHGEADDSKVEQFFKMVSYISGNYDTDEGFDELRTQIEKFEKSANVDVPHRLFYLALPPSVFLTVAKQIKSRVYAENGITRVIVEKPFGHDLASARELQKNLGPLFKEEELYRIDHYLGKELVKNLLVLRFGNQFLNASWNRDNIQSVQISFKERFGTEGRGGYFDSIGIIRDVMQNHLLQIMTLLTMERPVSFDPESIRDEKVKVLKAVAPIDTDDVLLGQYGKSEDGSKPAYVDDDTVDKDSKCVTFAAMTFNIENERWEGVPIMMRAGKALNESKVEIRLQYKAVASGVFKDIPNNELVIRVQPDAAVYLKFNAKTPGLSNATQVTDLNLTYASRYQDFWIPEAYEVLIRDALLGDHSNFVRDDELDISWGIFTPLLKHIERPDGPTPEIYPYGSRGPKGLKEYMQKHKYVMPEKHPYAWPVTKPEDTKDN
S. cerevisiae ZWF1 (glucose-6-phosphate dehydrogenase) variant A24G/T28G (mutant 2), sequence (P11412 whole entry A24G/T28G): as the sequence (P11412 whole entry Y40L) above, with A24G, T28G, L40Y counted along it
S. cerevisiae ZWF1 variant A51D (mutant 4), sequence (P11412 whole entry A51D): as the sequence (P11412 whole entry Y40L) above, with L40Y, A51D counted along it
S. cerevisiae ZWF1 (glucose-6-phosphate dehydrogenase) variant A51N (mutant 3), sequence (P11412 whole entry A51N): as the sequence (P11412 whole entry Y40L) above, with L40Y, A51N counted along it
S. cerevisiae ZWF1 (glucose-6-phosphate dehydrogenase) variant A24G (mutant 1), sequence (P11412 whole entry A24G): as the sequence (P11412 whole entry Y40L) above, with A24G, L40Y counted along it
S. cerevisiae ZWF1 (glucose-6-phosphate dehydrogenase) variant T28F (mutant 5), sequence (P11412 whole entry T28F): as the sequence (P11412 whole entry Y40L) above, with T28F, L40Y counted along it
S. cerevisiae ZWF1 (glucose-6-phosphate dehydrogenase) variant K46R (mutant 6), sequence (P11412 whole entry K46R): as the sequence (P11412 whole entry Y40L) above, with L40Y, K46R counted along it
S. cerevisiae ZWF1 (glucose-6-phosphate dehydrogenase) variant F33Y (mutant 8), sequence (P11412 whole entry F33Y): as the sequence (P11412 whole entry Y40L) above, with F33Y, L40Y counted along it

NC(=O)c1ccc[n+]([C@@H]2O[C@H](COP(=O)(O)OP(=O)(O)OC[C@H]3O[C@@H](n4cnc5c(N)ncnc54)[C@H](O)[C@@H]3O)[C@@H](O)[C@H]2O)c1 [NAD+]
NAD+ usage [1]: Yes
NAD+ usage [2]: No
NAD+ usage [3]: No
NAD+ usage [4]: No
NAD+ usage [5]: No
NAD+ usage [6]: No
NAD+ usage [7]: No
NAD+ usage [8]: No

NC(=O)c1ccc[n+]([C@@H]2O[C@H](COP(=O)(O)OP(=O)(O)OC[C@H]3O[C@@H](n4cnc5c(N)ncnc54)[C@H](OP(=O)(O)O)[C@@H]3O)[C@@H](O)[C@H]2O)c1 [NADP+]
NADP+ usage [1]: No
NADP+ usage [2]: Yes
NADP+ usage [3]: Yes
NADP+ usage [4]: No
NADP+ usage [5]: Yes
NADP+ usage [6]: Yes
NADP+ usage [7]: Yes
NADP+ usage [8]: Yes

B1: Ruminococcus flavefaciens xylose isomerase chimera XI-Rp5 (first 5 amino acids of Piromyces xylose isomerase), SEQ ID NO: 56 (Ruminococcus flavefaciens; … (protein)
chain: MAKEYFSNIGKIQYQGPKSTDPLSFKYYNPEEVINGKTMREHLKFALSWWHTMGGDGTDMFGCGTTDKTWGQSDPAARAKAKVDAAFEIMDKLSIDYYCFHDRDLSPEYGSLKATNDQLDIVTDYIKEKQGDKFKCLWGTAKCFDHPRFMHGAGTSPSADVFAFSAAQIKKALESTVKLGGNGYVFWGGREGYETLLNTNMGLELDNMARLMKMAVEYGRSIGFKGDFYIEPKPKEPTKHQYDFDTATVLGFLRKYGLDKDFKMNIEANHATLAQHTFQHELRVARDNGVFGSIDANQGDVLLGWDTDQFPTNIYDTTMCMYEVIKAGGFTNGGLNFDAKARRGSFTPEDIFYSYIAGMDAFALGFRAALKLIEDGRIDKFVADRYASWNTGIGADIIAGKADFASLEKYALEKGEVTASLSSGRQEMLESIVNNVLFSL
notes: E2 XI (CAB76571.1; MAKEY) on Ruminococcus XI
Km [9]: 66.5 mM

B2: Ruminococcus flavefaciens xylose isomerase chimera XI-Rp10 (first 10 amino acids of Piromyces xylose isomerase), SEQ ID NO: 58 (Ruminococcus flavefaciens; … (protein)
chain: MAKEYFPQIQQYQGPKSTDPLSFKYYNPEEVINGKTMREHLKFALSWWHTMGGDGTDMFGCGTTDKTWGQSDPAARAKAKVDAAFEIMDKLSIDYYCFHDRDLSPEYGSLKATNDQLDIVTDYIKEKQGDKFKCLWGTAKCFDHPRFMHGAGTSPSADVFAFSAAQIKKALESTVKLGGNGYVFWGGREGYETLLNTNMGLELDNMARLMKMAVEYGRSIGFKGDFYIEPKPKEPTKHQYDFDTATVLGFLRKYGLDKDFKMNIEANHATLAQHTFQHELRVARDNGVFGSIDANQGDVLLGWDTDQFPTNIYDTTMCMYEVIKAGGFTNGGLNFDAKARRGSFTPEDIFYSYIAGMDAFALGFRAALKLIEDGRIDKFVADRYASWNTGIGADIIAGKADFASLEKYALEKGEVTASLSSGRQEMLESIVNNVLFSL
Km [10]: 75.8 mM

B3: Ruminococcus flavefaciens xylose isomerase (hot rod) variant G179A (Ruminococcus flavefaciens; G179A) (protein)
chain: B2 chain with A2E, K3F, E4F, Y5S, F6N, P7I, Q8G, I9K, Q10I, G179A
notes: expressed in S. cerevisiae, soluble extract
Km [11]: 83.82 mM

B4: Ruminococcus flavefaciens xylose isomerase chimera XI-Rp15 (first 15 amino acids of Piromyces xylose isomerase), SEQ ID NO: 60 (Ruminococcus flavefaciens; … (protein)
chain: B2 chain with Q11K, Y12I, Q13K, G14F, P15E
Km [12]: 49.3 mM
